# Assay results as given in paper PMC9433317, “Discovery, structure and mechanism of a tetraether lipid synthase” (Nature, 2022).
# How the values were obtained:
# GDGT–MAS (MJ0619; Tes) [1] = target: T1, GDGT–MAS (MJ0619; Tes) (Methanocaldococcus jannaschii, UniProt Q58036); assay: X-ray crystal structures, […] Å and […] Å; format: binding; conditions: with 5'-dAH and bound lipids; bidentate to the unique iron of the radical SAM [Fe4S4] cluster
# T1 sequence (Q58036 1-506): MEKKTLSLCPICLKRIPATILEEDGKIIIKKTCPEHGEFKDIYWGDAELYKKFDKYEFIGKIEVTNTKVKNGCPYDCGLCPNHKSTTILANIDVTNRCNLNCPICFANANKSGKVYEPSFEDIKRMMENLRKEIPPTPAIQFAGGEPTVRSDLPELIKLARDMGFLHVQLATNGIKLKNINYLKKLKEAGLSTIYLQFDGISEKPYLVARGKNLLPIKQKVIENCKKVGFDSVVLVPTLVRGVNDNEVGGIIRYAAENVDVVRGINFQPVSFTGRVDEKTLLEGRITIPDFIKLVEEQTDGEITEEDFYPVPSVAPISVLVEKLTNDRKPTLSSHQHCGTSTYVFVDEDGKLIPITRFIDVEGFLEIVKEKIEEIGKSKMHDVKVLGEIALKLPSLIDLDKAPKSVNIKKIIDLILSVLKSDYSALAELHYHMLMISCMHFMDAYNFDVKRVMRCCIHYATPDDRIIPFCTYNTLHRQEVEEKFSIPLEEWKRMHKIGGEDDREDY
# GDGT–MAS (MJ0619; Tes) [2] = target: T1, GDGT–MAS (MJ0619; Tes); assay: X-ray crystal structure, […] Å; format: binding; conditions: lipid-exchanged from M. acetivorans extract; with 5'-dAH and methionine; lipid identity assigned from electron density; second lipid site
SMILES,"X-ray crystal structures, 1.85 Å and 2.05 Å (GDGT–MAS (MJ0619; Tes) [1])","X-ray crystal structure, 2.05 Å (GDGT–MAS (MJ0619; Tes) [2])"
"CSCC[C@H](N)C(=O)O [Met, methionine]",methionine coordinates to the unique iron in a bidentate manner,–
"CC(C)CCC[C@@H](C)CCC[C@@H](C)CCC[C@@H](C)CCOC[C@@H](COP(=O)(O)O)OCC[C@H](C)CCC[C@H](C)CCC[C@H](C)CCCC(C)C [L1P, 2,3-di-O-phytanyl-sn-glycero-1-phosphate]",–,Unmodelled electron density in the active site was assigned as two archaeal lipid molecules
